We go through 3 substances from US20080226565A1, “Anticariogenic Proteins & Peptides & Saccharides” (priority 2004, published 2008).

Test [1] has as its system aerobes isolated from the oral cavity. Put plainly: Susceptibility (MIC), agar dilution, aerobes from the oral cavity. Type of test: cell-based, aerobic bacteria. Particulars: for activity against aerobes: explored range 0.2 to 3.5 mg/ml. How it is done: (§1) The investigations included more than hundred strains isolated from the oral cavity: : anaerobes, microaerophilic bacteria, aerobes, Streptococcus spp. and yeast like fungi. The microorganisms were isolated from saliva, mucosal membrane, gingival pockets and caries decay. The susceptibility (MIC) of bacteria and yeastlike fungi were determined by means of plate dilution technique in agar.
(§2) The investigated samples were dissolved in sterile distilled water (immediately before the experiment) to obtain the following concentrations: 3.5, 1.7, 0.8, 0.4 and 0.2 mg/ml and were added into appropriate agar. The plates were inoculated using a Steers multipoint inoculator. Inoculum contained 10^6 CFU/spot. In each experimental series, the growth of strains on the culture medium without the compounds investigated was checked. The concentration at which no macroscopic growth of the microbes was observed on the medium was regarded as the lowest concentration, inhibiting the growth of microbes (MIC). The examinations of the susceptibility of microbes to the peptides were carried out twice.
Anaerobes. The susceptibility of bacteria was determined by means of the agar dilution methods with Brucella agar supplemented with 5% defibrinated sheep's blood, menadione and hemin. Sample solutions with concentrations from of 3.5-0.2 mg/ml were added into agar. The agar plate without investigated samples was included as a bacterial growth control. The inoculum of 10^6 CFU/ml was applied to the agar plates with Steers replicator. Incubation was performed for 48 hrs at 37° C. (310° K) in anaerobic jars containing a mixture of 10% CO2, 10% H2 and 80% N2, in the presence of palladium catalyst and indicator of anaerobiosis. Microaerophilic bacteria. The susceptibility of bacteria was determined by means of the agar dilution methods with Brucella agar supplemented with 5% sheep's blood. Samples solutions with concentrations from of 3.5- 0.2 mg/ml were added into agar. The agar plate without investigated samples was included as a bacterial growth control. The inoculum of 10^6 CFU/ml was applied to the agar plates with Steers replicator. The incubation was performed at 37° C. in anaerobic jars with Campy Pak (bio Merieux) for 48 hours. Streptococcus spp. The susceptibility of bacteria was determined by means of the agar dilution methods with Mueller-Hinton agar supplemented with 5% sheep's blood. Samples solutions with concentrations from of 3.5- 0.2 mg/ml were added into agar. The agar plate without investigated samples was included as a bacterial growth control. […] The susceptibility to investigated samples was determined by means of the plate dilution technique in Mueller-Hinton agar. […] The susceptibility of fungi to investigated samples was determined by means of the plate dilution technique in Sabouraud's agar. […]

The nature of test [2]: In-vivo: tooth samples treated with peptide, 12 hours in the oral cavity, then acetic acid, Knoop hardness. Details: species or system human. Particulars: for B: Average initial hardness of the tooth surface (st. dev.): before treatment. How it is done: In another experiment, 126 sterilized tooth samples where treated with a variety of peptides, fixed to the device and positioned after the lower jaw in the oral cavity of 5 volunteers. The device remained in the oral cavity for a period of 12 hours after which the teeth where removed, cleaned and subjected to a drop of acetic acid (0.1N, 30 min., 37° C). Subsequently the acid was removed, the teeth where cleaned and the hardness was measured (Knoop method). The depth of penetration increased 8.82 μm, 5.40 μm, 5.32 μm and 3.77 μm respectively for teeth treated as blanco with 4.2% casein phosphopeptide e-polylysine copolymer, 7.5% phosvitin and with 4.2% bisphosphonylated e-polylysine. The p-values are respectively 0.000, 0.000 and 0.004 for casein phosphopeptide e-polylysine copolymer, bisphosphonylated e-polylysine and phosvitin.
Tooth samples have been cut in horizontal slices (thickness: 0.3 to 1 mm) with a Leitz 1600 tooth cutter with horizontal cutting blade; the slices are cut manually (with a bore) into small tooth samples that contain a small part of the original tooth surface. The tooth sample is positioned in a small plastic tube, that has been cut from a long plastic tube with 6 mm external diameter. The length of the tube is 3 to 6 mm. The inner part of the tube is filled with a polymer that hardens under light (Photoclearfil Bright; Kuraray). The tooth sample is positioned in the soft polymer inside the tube, in such a way that the original tooth surface is just surfacing above the tube. Finally the polymer is hardened with a light source. The tooth surface is polished with Struers silicon carbid paper (800-4000) and the hardness is measured 5 times on each of the samples under the Letiz Wetzlar microscope (weight on needle: 50 p). Tooth samples with a maximum average depth of penetration of 43 μm are retained for use in the oral cavity.
The tooth-samples are fixed to a device that has been described in the chapter “Description of the invention ( chapter: In-vivo experiments)” and the device is positioned in the oral cavity after the lower jaw.
A drop from a solution containing either, e-polylysine, CPP, bisphoshphonylated e-polylysine, casein phosphopeptide epsilon-polylysine copolymer or partially hydrolysed phosvitin has been positioned at the surface of tooth samples for a period of 30 minutes at 37 C.; the drop was removed and the procedure was repeated once more. All solutions contained also 3.1% CaCl2.2H2O and 1.7% KH2PO4 (except for the one containing e-polylysine).
The tooth surface was cleaned with a soft paper towel until it was visibly clean. Four such tooth samples where fixed to the device and located in the oral cavity behind the lower jaw. They resided in the oral cavity for a period of 12 hours (only to be removed during eating). Subsequently, they where removed, cleaned and the tooth surface was treated with a drop of acetic acid (0.1N, 30 min., 37° C.); the acid was removed, the tooth was washed with deionized water and the hardness was evaluated.
A: type of peptide ingredient in the solution (% on a w/w basis versus water). (*): the teeth where submerged (30 min.) in a saliva batch and dried afterwards on air, before they where treated with a solution that contained bisphosphonylated e-polylysine. B: Average initial hardness of the tooth surface; μm (st. dev.) C: Average hardness after treatment, after residing in the oral cavity and treatment with acid D: The average change in hardness (C−B) E: p-value (against blanco) of the Mann-Whitney statistical test F: the number of tooth samples that where treated with a specific formulation; hardness on each of the tooth samples was measured five times and an average value was calculated; most often 4 tooth samples per person; 5 volunteers participated to the experiment; the 132 tooth samples where randomized into groups (of 4 teeth) with the same average hardness value.

For test [3], the system named is anaerobes isolated from the oral cavity. Put plainly: Susceptibility (MIC), agar dilution, anaerobes from the oral cavity. Type of test: cell-based, anaerobic bacteria. Particulars: for activity against anaerobes: explored range 0.2 to 3.5 mg/ml. How it is done:
as §1, §2
Anaerobes. The susceptibility of bacteria was determined by means of the agar dilution methods with Brucella agar supplemented with 5% defibrinated sheep's blood, menadione and hemin. Sample solutions with concentrations from of 3.5-0.2 mg/ml were added into agar. The agar plate without investigated samples was included as a bacterial growth control. The inoculum of 10^6 CFU/ml was applied to the agar plates with Steers replicator. Incubation was performed for 48 hrs at 37° C. (310° K) in anaerobic jars containing a mixture of 10% CO2, 10% H2 and 80% N2, in the presence of palladium catalyst and indicator of anaerobiosis. Microaerophilic bacteria. The susceptibility of bacteria was determined by means of the agar dilution methods with Brucella agar supplemented with 5% sheep's blood. Samples solutions with concentrations from of 3.5- 0.2 mg/ml were added into agar. The agar plate without investigated samples was included as a bacterial growth control. The inoculum of 10^6 CFU/ml was applied to the agar plates with Steers replicator. The incubation was performed at 37° C. in anaerobic jars with Campy Pak (bio Merieux) for 48 hours. Streptococcus spp. The susceptibility of bacteria was determined by means of the agar dilution methods with Mueller-Hinton agar supplemented with 5% sheep's blood. Samples solutions with concentrations from of 3.5- 0.2 mg/ml were added into agar. The agar plate without investigated samples was included as a bacterial growth control. The inoculum of 10^6 CFU/ml was applied to the agar plates with Steers replicator. Incubation was performed for 24 hrs at 37° C. (310° K) in anaerobic jars containing a mixture of 10% CO2 and 90% N2. Aerobes. The susceptibility to investigated samples was determined by means of the plate dilution technique in Mueller-Hinton agar. Samples solutions with concentrations from of 3.5- 0.2 mg/ml were added into agar. The agar plate without investigated samples was included as a bacterial growth control. The inoculum of 10^6 CFU/ml was applied to the agar plates with Steers replicator. Plates were incubated for 24 hrs in 37° C. under aerobic conditions. Yeast like fungi. The susceptibility of fungi to investigated samples was determined by means of the plate dilution technique in Sabouraud's agar. Samples solutions with concentrations from of 3.5- 0.2 mg/ml were added into agar. […]
Background: In agar dilution, organisms are placed on agar that contains the substance at set levels.

The mark [4] stands for this setting: 4.2% w/w solution, 12 hours oral cavity, acetic acid 0.1N 30 min.

With “Epsilon-polylysine (elys; e-polylysine) [Product 6]”, the “aerobes harvested from the oral cavity that are inhibited” value in test [1] (at 0.2 to 0.4 mg/ml, 2 from 17) was found to be 12%. Further, in test [2] (setting [4]), the “C: Average hardness after treatment, after residing in the oral cavity and treatment with acid” value (“C: Average hardness after treatment” for short) is given as 47.81 (3.67) μm; the “D: average change in hardness (C−B)” value is reported as 6.93 μm. Moreover, the “B: Average initial hardness of the tooth surface (st. dev.)” value (from here on “B: Average initial hardness”) in test [2] (group for 4.2% solution) is 40.88 (0.91) μm. The “anaerobes harvested from the oral cavity that are inhibited” value in test [3] (at 0.2 to 0.4 mg/ml, 17 from 24 species) was found to be 71%. Also, the “mic-value (minimum inhibitory concentration)” value in test [3] (gram-negative anaerobes, often, incl. Prevotella nigrescens, Porphyromonas gingivalis, Fusobacterium nucleatum) is at most 200 µg/mL.
“casein phosphopeptide epsilon-polylysine copolymer [(CPP x elys)n]”: the activity against aerobes result in test [1] is reported as “not active”. Besides, the “C: Average hardness after treatment” value in test [2] (setting [4]) is listed as 46.21 (1.94) μm; in test [2] (7.8% w/w solution, 12 hours oral cavity, acid), 42.92 (1.43) μm. Further, the “D: average change in hardness (C−B)” value in test [2] (setting [4]) was 5.40 μm; in test [2] (7.8% w/w solution) it was 2.41 μm. Besides, the entries for the “B: Average initial hardness” value in test [2] (group for 4.2% solution) and in test [2] (group for 7.8% solution) were 40.81 (0.68) μm and 40.51 (1.55) μm, respectively. Moreover, the activity against anaerobes result in test [3] is on record as “less effective”.
For “bisphosphonylated epsilon-polylysine [bisphosphonylated e-polylysine]”, in test [1], the activity against aerobes result is “not active”. The figures for the “D: average change in hardness (C−B)” value in test [2] (4.2% solution (*): teeth submerged 30 min in saliva before treatment) and in test [2] (setting [4]) were 3.29 μm and 3.77 μm, respectively. Also, the “C: Average hardness after treatment” value in test [2] (4.2% solution (*): teeth submerged 30 min in saliva before treatment, 12 hours oral cavity, acid) is 44.05 (2.92) μm; in test [2] (setting [4]), 44.29 (2.08) μm. Moreover, the figures for the “B: Average initial hardness” value in test [2] (group for 4.2% solution (*)) and in test [2] (group for 4.2% solution) were 40.76 (0.73) μm and 40.52 (0.62) μm, respectively. Further, in test [3], the activity against anaerobes result is “good activity”.
